Assay results reported in PubChem BioAssay AID1996.
≈ marks a conversion by molar mass, not a printed value.

conditions: buffer; pH 7.4; 200.0 µM

Row | Compound | solubility kinetic [µg/mL]
1 | O=C(Cn1ccc([N+](=O)[O-])n1)Nc1nc2ccccc2s1 | > 45.5
2 | O=C(c1cc(-c2ccncc2)nc2ccccc12)N1CCN(c2ncccn2)CC1 | 55.4 (≈ 140 µM)
3 | Cn1ncc2c(NCc3ccccc3)nc(NCCCO)nc21 | > 46.9
4 | CCOC(=O)c1ccc2c(c1)N(CC#N)C(=O)C(C)(C)O2 | > 43.2
5 | CN1C(=O)N(C)C(c2cccc([N+](=O)[O-])c2)C2=C1CCCC2=O (stereo not given) | > 47.3
6 | O=C(Nc1cc(Cl)ncn1)c1ccccc1 | 34.2 (≈ 146 µM)
7 | CC(OC(=O)c1ccc(Cl)cc1)C(=O)NCC1CCCCC1 (stereo not given) | 13.8 (≈ 42.6 µM)
8 | COc1cccc(NC(=O)c2cc(=O)c3ccccc3o2)c1 | 1.9 (≈ 6.43 µM)
9 | CCN(Cc1nc(-c2ccccc2)no1)C(=O)c1ccoc1C | 40.2 (≈ 129 µM)
10 | Cn1ccnc1C(=O)Cc1ccc([N+](=O)[O-])cc1 | 35.2 (≈ 144 µM)
11 | C=CCn1c(C)cc(C(=O)Cn2c(C(C)O)nc3ccccc32)c1C (stereo not given) | 29.4 (≈ 87.1 µM)
12 | CC(C)NC(=O)c1ccc(CSCc2ccccc2Cl)o1 | > 48.6
13 | CCN(CC)c1ccc(C=Nc2cccc(S(=O)(=O)N3CCOCC3)c2)c(O)c1 | 8.3 (≈ 19.9 µM)
14 | O=C(COC(=O)c1cnccn1)c1cccc([N+](=O)[O-])c1 | > 43.1
15 | COc1cccc(NC(=S)NC(=O)Cc2ccccc2)c1 | 16 (≈ 53.3 µM)
16 | CCc1ccc(Nc2c([N+](=O)[O-])c(=O)oc3ccccc23)cc1 | 1.4 (≈ 4.51 µM)
17 | COCCn1c(C)cc(C(=O)CN2c3cccc4cccc(c34)S2(=O)=O)c1C | 3.5 (≈ 8.78 µM)
18 | CN(C)C(=O)c1cc2cc(Br)ccc2s1 | 7.4 (≈ 26 µM)
19 | COc1ccc(CN(C)C(=O)Cc2ccsc2)c(OC)c1OC | 35.2 (≈ 105 µM)
20 | CC1CC(C)CN(C(=O)C(Cc2ccccc2)n2cccc2)C1 (stereo not given) | 4.4 (≈ 14.2 µM)

Row | Compound | solubility kinetic [µg/mL]
21 | Cc1cc([N+](=O)[O-])ccc1NCc1ccc2c(c1)OCCO2 | 10.8 (≈ 36 µM)
22 | O=C(Cn1nc(C(F)F)cc1C1CC1)N1CCCC1 | > 40.4
23 | Cc1cccc(N2CCN(C(=S)NC3CCCCC3)CC2)c1C | < 0.2
24 | CCOc1ccc(S(=O)(=O)NC(=O)c2ccccc2)cc1 | > 45.8
25 | COc1cc2nc(C(C)(C)C)oc(=O)c2cc1OC | > 39.5
26 | COC(=O)/C(=C\C=C\c1ccccc1)NC(=O)c1ccccc1 | 6.3 (≈ 20.5 µM)
27 | NC(=O)NC(=O)COC(=O)c1ccc2noc(-c3ccccc3)c2c1 | 5.2 (≈ 15.3 µM)
28 | O=C(NCCc1ccc(F)cc1)C1CCCO1 (stereo not given) | 27.6 (≈ 116 µM)
29 | O=C(COC(=O)/C=C/c1ccc(S(=O)(=O)N2CCOCC2)cc1)Nc1ccccc1F | 12.5 (≈ 27.9 µM)
30 | O=C1CNC(=S)N1CCCn1ccnc1 | 31.5 (≈ 140 µM)
31 | Cc1ccc(C)c(NC(=O)CCN2CCN(C)CC2)c1 | > 41.3
32 | COc1ccc(NC(=O)Nc2cccc3ccccc23)c(OC)c1 | 0.5 (≈ 1.55 µM)
33 | Cc1c(C(=O)N(C)Cc2ccc(OC(F)F)cc2)oc2ccccc12 | 6.5 (≈ 18.8 µM)
34 | CCOc1ncccc1C(=O)OCC(=O)N1CCC(C)CC1 | > 46
35 | CCOc1ncccc1C(=O)OCC(=O)NC1CCCCC1 | 34.2 (≈ 112 µM)
36 | CC(=O)NC(Cc1c[nH]c2ccccc12)C(=O)NCCc1ccccc1 (stereo not given) | > 52.4
37 | CN(C)S(=O)(=O)c1cccc(NC(=O)CCNC(=O)Nc2ccccc2)c1 | > 58.6
38 | O=C(CSc1ncccn1)NCc1cccc(Cl)c1 | > 44.1
39 | CC(CNC(=O)c1ccc(C#N)cc1)NC(=O)c1ccc(C#N)cc1 (stereo not given) | > 49.9
40 | Cc1ccc(S(=O)(=O)NCCCn2ccnc2)cc1C(=O)NC(C)C | > 54.7

Row | Compound | solubility kinetic [µg/mL]
41 | COc1ccc(NC(=O)CS(=O)(=O)c2ccccc2)cc1 | > 45.8
42 | CCc1ccc(NC(=S)NCc2cccnc2)cc1 | 36.9 (≈ 136 µM)
43 | COc1ccc(NS(=O)(=O)c2ccc(C(=O)NCC3(N4CCOCC4)CCCCC3)cc2)cc1 | 13.8 (≈ 28.3 µM)
44 | Cl.N=c1sccn1Cc1ccccc1F | > 36.7
45 | Cc1csc(NC(=O)Cn2nc(C)c([N+](=O)[O-])c2C)n1 | > 44.3
46 | Cc1cc(=O)c(C(=O)O)nn1-c1cccc(C(F)(F)F)c1 | > 44.7
47 | COc1cc2c(cc1OC)CN(C(=O)COc1ccccc1C#N)CC2 | 15 (≈ 42.6 µM)
48 | Cc1ccc(C(=O)NC(C)c2ccc(C)c(C)c2)s1 (stereo not given) | 3.5 (≈ 12.8 µM)
49 | O=c1[nH]c(N2CCCCC2)nc2ncn(Cc3ccccc3)c12 | 33.3 (≈ 108 µM)
50 | Cc1[nH]c(=S)c(C#N)c(C)c1CCC#N | > 32.6
51 | CCOc1ccccc1NC(=O)NC1CCCCCCC1 | 0.4 (≈ 1.38 µM)
52 | CC(C)(C)NC(=O)COC(=O)CCC(=O)c1cccs1 | > 44.6
53 | N#CCCN(Cc1ccccc1)C(=S)Nc1ccc(F)cc1 | 28.8 (≈ 91.9 µM)
54 | COCCNC(=O)/C(C#N)=C/c1ccc(O)c([N+](=O)[O-])c1 | > 43.7
55 | O=C(CCCN1C(=O)c2ccccc2C1=O)NCc1ccc(F)cc1 | 47.8 (≈ 140 µM)
56 | NC(=O)CSc1nnc(NC(=O)c2ccc(Br)o2)s1 | > 54.5
57 | CCNC(=O)CC1C(=O)N(c2ccc(C)cc2)C(=O)N1CCOC (stereo not given) | > 50
58 | Cc1ccc(CN2C(=O)CSC2c2ccccc2F)cc1 (stereo not given) | 14 (≈ 46.5 µM)
59 | O=C(Nc1ccc(F)cc1)C1CC(=O)N(Cc2ccco2)C1 (stereo not given) | > 45.3
60 | CCCn1c(N)c(N2CCCCC2)c(=O)n(CC(=O)Nc2cccc(S(=O)(=O)N(C)C)c2)c1=O | 68.3 (≈ 139 µM)
